Values of other authors, collected in US6996473B2, “Method for screening and producing compound libraries” (Lion Bioscience AG, priority 1998, dated 2006).
Counter-ions that a name gives are not always drawn. Like-named read-outs stand apart in the source and are kept apart here.

What was measured:
rabbit intestinal tissue = settings: intestinal transport mechanism represented by the standard
[1] = Stomach

Row | SMILES | Transport mechanism (rabbit intestinal tissue) | Solubility [1] [mg/mL] | Cmax (Clinical 1505a) [µg/mL] | Tmax (Clinical 1505a) [h] | Cmax (Clinical 1505b) [µg/mL] | Tmax (Clinical 1505b) [h] | bioavailability of fasted patients in clinical trials (fasted patients, oral)
1 | O=C[C@H](O)[C@@H](O)[C@H](O)[C@H](O)CO [D-glucose] | Carrier-mediated Influx |  |  |  |  |  | 
2 | Nc1nc(O)c2ncn(COC(CO)CO)c2n1 [Gancyclovir, 9-(1,3-dihydroxy-2-propoxymethyl) guanine, monosodium salt] |  | 31 | 0.55 | 1.43 | 0.59 | 1.43 | 3-20%
3 | OC[C@@H](O)[C@@H](O)[C@H](O)[C@H](O)CO [mannitol] | Passive Paracellular |  |  |  |  |  | 
